Test results as given in US20260315564A1, “THE USE OF TP3 (THYMOPENTIN ANALOG) BY INCREASING THE ACTIVITY AND NUMBER OF T-CELLS INVOLVED IN THE DEFENSE MECHANISM OF THE IMMUNE SYSTEM OF MAMMALS, FOR THE PREVENTION OR TREATMENT OF DISEASES TO EXTEND THE AVERAGE LIFESPAN” (priority 2023, published 2026).
Marks after values point to notes of the source that are not given here.

Test system: peritoneal macrophages
Test: Phagocytic function of peritoneal macrophages ex vivo in CFLP outbred mice (CY-immunosuppressed)
Text: 6.2./Examination of the Effect on the Phagocytic Function of Peritoneal Macrophages CFLP Outbred in Mice
Macrophage phagocytosis ex vivo (X=yeast/100 cells)

O=P1(N(CCCl)CCCl)NCCCO1 (centres unmarked) [CY]
phagocytic activity of macrophages (CY immunosuppression, 1.0 mg/kg/sc (TP3), in words): significantly inhibited
macrophage phagocytosis ex vivo (CY p.o. alone, n = 15, untreated control 194.5): 111.5* yeast/100 cells
